What was measured:
[1] = tested on: Plasmodium berghei ANKA (PbA)-induced experimental cerebral malaria; experiment: Survival of mice infected with PbA (Kaplan Meier, log rank test); type: in vivo; details: C57Bl/6 mice, 10 mg/kg artesunate Day 5 sc, alone (Example 4)
Excerpt: (§1) Cryopreserved Plasmodium berghei ANKA (PbA; MR4, Manassas, Va.) was passaged through naïve C57Bl/6 mice. For the experiment, infection was initiated in C57Bl/6 and BALB/c mice by intraperitoneal (ip) injection of 1×10^6 freshly-isolated parasitized erythrocytes (PE) obtained from donor passage mice. Parasitemia was monitored by thin-blood smear stained with modified Geimsa stain (Protocol Hema3 Stain Set, Sigma, Oakville, ON) by counting at least 1500 erythrocytes. The infected mice were monitored for survival, neurological impairment, vascular leakage, parasite burden, and levels of angiogenic factors and markers of endothelial activation.
Post-infection survival of mice was plotted as Kaplan Meier curves using a log rank test for comparison. Quantitative assessment of ECM-associated neurological impairment (impaired coordination and motor performance) was performed daily using the 10 parameter Rapid Murine Coma and Behavioral Score (RMCBS), as previously described by Carroll R W, et al. 2010 in PLoS ONE 5: e13124. […] Total scores for each mouse were calculated and provided as a percentage of the total possible score. […]
Statistical analysis was performed using GraphPad Prism version 4.00 (San Diego, Calif.). Post-infection survival of mice was plotted as Kaplan Meier curves and assessed using log-rank test. […]

[2] = tested on: Plasmodium berghei ANKA (PbA); experiment: Parasitemia by thin-blood smear; type: in vivo; details: C57Bl/6 mice, 10 mg/kg artesunate Day 5 sc (Example 4)
Excerpt: as §1

Which results are given for `C[C@H]1[C@H](OC(=O)CCC(=O)O)O[C@@H]2O[C@@]3(C)CC[C@H]4[C@H](C)CC[C@@H]1[C@@]24OO3` [artesunate, reference compound]?
survival by Day 8 post infection [1]: less than 60%; treated mice that died of ECM [1]: 41.7%; parasitemia (parasite burden diminished to pre-ECM levels) [2]: < 2%
